The results in this text go back to ChEMBL document CHEMBL1142897, “Synthesis, characterization and antimicrobial activity of Fe(II), Zn(II), Cd(II) and Hg(II) complexes with 2,6-bis(benzimidazol-2-yl) pyridine ligand” (2007).

In experiment [1] the test system is Klebsiella pneumoniae. The experiment is described as follows: Antibacterial activity against Klebsiella pneumoniae after 72 hrs by disk diffusion method. It counts as functional.
Experiment [2] relates to Pseudomonas aeruginosa. The experiment is described as follows: Antibacterial activity against Pseudomonas aeruginosa after 72 hrs by disk diffusion method. It counts as functional. (In general: In agar diffusion tests the substance spreads into inoculated agar from a disc or well.)
For experiment [3], the system named is Micrococcus luteus. The experiment is described as follows: Antibacterial activity against Micrococcus luteus after 72 hrs by disk diffusion method. It is filed as functional.
For experiment [4], the system named is Proteus vulgaris. The experiment is described as follows: Antibacterial activity against Proteus vulgaris after 72 hrs by disk diffusion method. It is filed as functional.
Experiment [5] has as its system Mycolicibacterium smegmatis. In words: Antibacterial activity against Mycobacterium smegmatis after 72 hrs by disk diffusion method. It counts as functional.
In experiment [6] the test system is Staphylococcus aureus. In words: Antibacterial activity against Staphylococcus aureus after 72 hrs by disk diffusion method. It is filed as functional.
The subject of experiment [7] is Bacillus cereus. The experiment is described as follows: Antibacterial activity against Bacillus cereus after 72 hrs by disk diffusion method. It counts as functional.
The test system of experiment [8] is Escherichia coli. The experiment is described as follows: Antibacterial activity against Escherichia coli after 72 hrs by disk diffusion method. It counts as functional.
The test system of experiment [9] is Listeria monocytogenes. In words: Antibacterial activity against Listeria monocytogenes after 72 hrs by disk diffusion method. It is filed as functional.
Experiment [10] deals with Candida albicans. In words: Antifungal activity against Candida albicans after 24 hrs by disk diffusion method. It counts as functional.
Experiment [11] has as its system Rhodotorula mucilaginosa. In words: Antifungal activity against Rhodotorula rubra after 24 hrs by disk diffusion method. It counts as functional.
The subject of experiment [12] is Debaryomyces hansenii. In words: Antifungal activity against Debaryomyces hansenii after 24 hrs by disk diffusion method. It is filed as functional.
The subject of experiment [13] is Hanseniaspora guilliermondii. In words: Antifungal activity against Hanseniaspora guilliermondii after 24 hrs by disk diffusion method. It is filed as functional.
The subject of experiment [14] is Kluyveromyces marxianus. In words: Antifungal activity against Kluyveromyces fragilis after 24 hrs by disk diffusion method. It is filed as functional.
Experiment [15] concerns Proteus vulgaris. The experiment is described as follows: Antibacterial activity against Proteus vulgaris after 24 hrs by dilution method. It counts as functional, organism-based.
The subject of experiment [16] is Bacillus cereus. In words: Antibacterial activity against Bacillus cereus after 24 hrs by dilution method. It is filed as functional, organism-based.
The test system of experiment [17] is Listeria monocytogenes. In words: Antibacterial activity against Listeria monocytogenes after 24 hrs by dilution method. It counts as functional, organism-based.
For experiment [18], the system named is Pseudomonas aeruginosa. In words: Antibacterial activity against Pseudomonas aeruginosa after 24 hrs by dilution method. It counts as functional, organism-based.
The test system of experiment [19] is Klebsiella pneumoniae. The experiment is described as follows: Antibacterial activity against Klebsiella pneumoniae after 24 hrs by dilution method. It is filed as functional, organism-based.
Experiment [20] relates to Micrococcus luteus. The experiment is described as follows: Antibacterial activity against Micrococcus luteus after 24 hrs by dilution method. It counts as functional, organism-based.
The subject of experiment [21] is Staphylococcus aureus. The experiment is described as follows: Antibacterial activity against Staphylococcus aureus after 24 hrs by dilution method. It counts as functional, organism-based.
Experiment [22] concerns Escherichia coli. In words: Antibacterial activity against Escherichia coli after 24 hrs by dilution method. It counts as functional, organism-based.
Experiment [23] concerns Mycolicibacterium smegmatis. In words: Antibacterial activity against Mycobacterium smegmatis after 24 hrs by dilution method. It is filed as functional, organism-based.
Experiment [24] has as its system Rhodotorula mucilaginosa. The experiment is described as follows: Antifungal activity against Rhodotorula rubra after 24 hrs by dilution method. It is filed as functional, organism-based.
The test system of experiment [25] is Candida albicans. The experiment is described as follows: Antifungal activity against Candida albicans after 24 hrs by dilution method. It counts as functional, organism-based.
Experiment [26] deals with Kluyveromyces marxianus. The experiment is described as follows: Antifungal activity against Kluyveromyces fragilis after 24 hrs by dilution method. It counts as functional, organism-based.
Experiment [27] deals with Hanseniaspora guilliermondii. In words: Antifungal activity against Hanseniaspora guilliermondii after 24 hrs by dilution method. It is filed as functional, organism-based.
Experiment [28] has as its system Debaryomyces hansenii. The experiment is described as follows: Antifungal activity against Debaryomyces hansenii after 24 hrs by dilution method. It is filed as functional, organism-based.

In the case of `CC1(C)S[C@@H]2[C@H](NC(=O)[C@H](N)c3ccccc3)C(=O)N2[C@H]1C(=O)O` [AMPICILLIN], the “inhibition zone (IZ)” value in the experiment on Klebsiella pneumoniae [1] was found to be 14 mm; in the experiment on Pseudomonas aeruginosa [2], 10 mm; with Micrococcus luteus [3], 32 mm; in the experiment with Proteus vulgaris [4], 16 mm; in [5], 21 mm; in the experiment on Staphylococcus aureus [6], 16 mm. The “inhibition zone (IZ)” value in the experiment on Bacillus cereus [7], in the experiment on Escherichia coli [8] and in the experiment on Listeria monocytogenes [9] was 12 mm in each case.

Take `CO/N=C(\C(=O)N[C@@H]1C(=O)N2C(C(=O)O)=C(COC(C)=O)CS[C@H]12)c1csc(N)n1` [CEFOTAXIME]: the “inhibition zone (IZ)” value in the experiment with Klebsiella pneumoniae [1] stood at 13 mm; in the experiment with Pseudomonas aeruginosa [2], 54 mm; in the experiment on Micrococcus luteus [3], 32 mm; in the experiment on Proteus vulgaris [4] it was 18 mm; in experiment [5] it was 11 mm; in the experiment on Staphylococcus aureus [6] it was 12 mm. Besides, the “inhibition zone (IZ)” value in the experiment with Bacillus cereus [7] stood at 14 mm; in the experiment with Escherichia coli [8], 10 mm; with Listeria monocytogenes [9] it was 16 mm.

Turning to `Clc1ccccc1C(c1ccccc1)(c1ccccc1)n1ccnc1` [CLOTRIMAZOLE], the “inhibition zone (IZ)” value is 15 mm in the experiment with Candida albicans [10]; 16 mm in the experiment with Rhodotorula mucilaginosa [11]; 18 mm with Debaryomyces hansenii [12]; 22 mm in experiment [13]; 18 mm in the experiment with Kluyveromyces marxianus [14].

Take `CC(=O)N1CCN(c2ccc(OCC3COC(Cn4ccnc4)(c4ccc(Cl)cc4Cl)O3)cc2)CC1` (configuration not stated) [KETOCONAZOLE]: the “inhibition zone (IZ)” value in the experiment on Candida albicans [10] worked out at 21 mm; with Rhodotorula mucilaginosa [11], 22 mm; with Debaryomyces hansenii [12], 14 mm; in experiment [13], 24 mm; in the experiment on Kluyveromyces marxianus [14] it was 16 mm.

In the case of `CC1COc2c(N3CCN(C)CC3)c(F)cc3c(=O)c(C(=O)O)cn1c23` (configuration not stated) [OFLOXACIN], the “inhibition zone (IZ)” value is recorded as 28 mm in the experiment with Klebsiella pneumoniae [1]; 44 mm with Pseudomonas aeruginosa [2]; 28 mm in the experiment on Micrococcus luteus [3]; 28 mm with Proteus vulgaris [4]; 32 mm in [5]; 24 mm in the experiment with Staphylococcus aureus [6]. For the same compound, the “inhibition zone (IZ)” value in the experiment with Bacillus cereus [7], in the experiment on Escherichia coli [8] and with Listeria monocytogenes [9] was 30 mm throughout.

Consider `CC1(C)S[C@@H]2[C@H](NC(=O)Cc3ccccc3)C(=O)N2[C@H]1C(=O)O` [PENICILLIN G], for which the “inhibition zone (IZ)” value in the experiment on Klebsiella pneumoniae [1] was determined as 18 mm; with Pseudomonas aeruginosa [2] it was 8 mm; in the experiment with Micrococcus luteus [3], 36 mm; with Proteus vulgaris [4] it was 10 mm; in [5], 15 mm; with Staphylococcus aureus [6], 13 mm. Moreover, the results for the “inhibition zone (IZ)” value in the experiment with Bacillus cereus [7], in the experiment on Escherichia coli [8] and in the experiment with Listeria monocytogenes [9] were 14 mm, 18 mm and 10 mm, respectively.

Regarding `CN(C)[C@@H]1C(O)=C(C(N)=O)C(=O)[C@@]2(O)C(O)=C3C(=O)c4c(O)cccc4[C@@](C)(O)[C@H]3C[C@@H]12` [TETRACYCLINE], the “inhibition zone (IZ)” value in the experiment on Klebsiella pneumoniae [1] was 30 mm; with Pseudomonas aeruginosa [2], 34 mm; in the experiment with Micrococcus luteus [3], 22 mm; in the experiment with Proteus vulgaris [4], 26 mm; in [5] it was 24 mm; with Staphylococcus aureus [6], 26 mm. Further, the “inhibition zone (IZ)” value in the experiment with Bacillus cereus [7] worked out at 25 mm; in the experiment on Escherichia coli [8] it was 28 mm; in the experiment with Listeria monocytogenes [9], 28 mm.

As for `CN[C@H](CC(C)C)C(=O)N[C@H]1C(=O)N[C@@H](CC(N)=O)C(=O)N[C@H]2C(=O)N[C@H]3C(=O)N[C@H](C(=O)N[C@H](C(=O)O)c4cc(O)cc(O)c4-c4cc3ccc4O)[C@H](O)c3ccc(c(Cl)c3)Oc3cc2cc(c3O[C@@H]2O[C@H](CO)[C@@H](O)[C@H](O)[C@H]2O[C@H]2C[C@](C)(N)[C@H](O)[C@H](C)O2)Oc2ccc(cc2Cl)[C@H]1O` [VANCOMYCIN], the “inhibition zone (IZ)” value in the experiment with Klebsiella pneumoniae [1] turned out to be 22 mm; with Pseudomonas aeruginosa [2], 10 mm; in the experiment with Micrococcus luteus [3] it was 34 mm; in the experiment on Proteus vulgaris [4], 20 mm; in experiment [5], 20 mm; with Staphylococcus aureus [6] it was 13 mm. In addition, the “inhibition zone (IZ)” value with Bacillus cereus [7] was 18 mm; with Escherichia coli [8], 22 mm; in the experiment with Listeria monocytogenes [9], 26 mm.

In general, MIC refers to the lowest concentration that inhibits growth of the organism. A higher MIC goes with a less susceptible organism. With GENTAMICIN, the minimal inhibitory concentration (MIC) against Proteus vulgaris [15] amounted to 6.25 µg/mL; in the experiment with Bacillus cereus [16], 6.25 µg/mL; with Listeria monocytogenes [17], 12.5 µg/mL; against Pseudomonas aeruginosa [18], 6.25 µg/mL; in the experiment on Klebsiella pneumoniae [19] it was 6.25 µg/mL; with Micrococcus luteus [20], 25 µg/mL. For the same compound, the minimal inhibitory concentration (MIC) in the experiment with Staphylococcus aureus [21] came out at 25 µg/mL; with Escherichia coli [22] it was 6.25 µg/mL; in experiment [23] it was 12.5 µg/mL.

For NYSTATIN, the minimal inhibitory concentration (MIC) was 6.25 µg/mL against Rhodotorula mucilaginosa [24]; 3.12 µg/mL in the experiment on Candida albicans [25]; 6.25 µg/mL against Kluyveromyces marxianus [26]; 3.12 µg/mL in experiment [27]; 12.5 µg/mL in the experiment on Debaryomyces hansenii [28]. Besides, the inhibition zone (IZ) was 18 mm with Rhodotorula mucilaginosa [11], 16 mm in the experiment with Debaryomyces hansenii [12], 21 mm in [13] and 18 mm in the experiment on Kluyveromyces marxianus [14].
